Assays:
[1] = test system: second-stage juveniles (J2) of M. incognita; test: in vitro bioassay against second-stage juveniles (J2), 48 hours' exposure; assay type: in vivo; settings: for % paralyzed namatodes: 0.17 g/L (of each compound in the composition)
Method: FIG. 1—effect of the aqueous crude extracts of seeds of antagonistic plants on (J2) of M. incognita. The bars represent the percentage of live nematodes after 48 hours' exposure. Concentration of 1 mg of each extract for a final volume of 0.3 mL and 100 second-stage juveniles was used in the bioassay in triplicate, having distilled water as negative control. […]
(§1) FIG. 9—(A) Bioassay showing the effect of the commercial compounds on second-stage juveniles of M. incognita after 48 hours' exposure. 1—Control dH20, 2—DECE, 3—Glycose 10%, 4—Glycose 20%, 5—D-Pinitol (80 ug), 6—D-Pinitol (150 ug), 7—L-canavanina (80 ug), 8—L-canavanina (150 ug), 9—palmitic acid (80 ug), 10—palmitic acid (150 ug), 11—citric acid (80 ug), 12—citric acid (150 ug), 13—malic acid (80 ug), 14—malic acid (150 ug), 15—cis-aconitic acid (80 ug), 16—cis-anonitic acid (150 ug), 17—trans-anonitic acid (80 ug), 18—trans-aconitic acid (150 ug), 19—50 mM Tris/HCl pH 8, 20—50 mM acetic acid pH 5, 21—L-phenylamine (80 ug), 22—L-phenylamine (150 ug), 23—L-methionine (80 ug), 24—L-methionine (150 ug), 25—L-tryptophan (80 ug), 26—L-tryptophan (150 ug), 27—S-carboxymethylcistein (80 ug), 28—S-carboxymethylcisteine (150 ug), 29—Zantotoxine (80 ug), 30—Zantotoxine (150 ug), and 31—Glucose 20%+L-canavanine (15)ug). B—Evaluation of the effect of the different commercial compounds after the recovery assay using distilled water.
FIG. 10—(A) Bioassay showing the effect of the commercial compounds and their compositions on second-stage juveniles of M. incognita […] after 48 hours' exposure. C+ positive control (extract); C—: negative control (water); 2: palmitic acid; 3: S-carboxymethylcisteine; 4: trans-aconitic acid; 5: glucose. […] (B)—Evaluation of the effect of the different commercial compounds and their compositions after the recovery assay using distilled water. C+ positive control (extract); 2: palmitic acid; 3: s-carboxymethylcisteine; 4: trans-aconitic acid; 5: glucose.

[2] = test system: J2 of M. incognita; test: recovery assay using distilled water, certifying nematicidal or nematostatic effect; assay type: in vivo
Method: as §1
FIG. 10—(A) Bioassay showing the effect of the commercial compounds and their compositions on second-stage juveniles of M. incognita […] after 48 hours' exposure. C+ positive control (extract); C—: negative control (water); 2: palmitic acid; 3: S-carboxymethylcisteine; 4: trans-aconitic acid; 5: glucose. Concentrations of the compositions: 3+4, 3+5=0.25 g/L (each active compound of the composition); 3+4+5=0.17 g/L each active compound of the composition. (B)—Evaluation of the effect of the different commercial compounds and their compositions after the recovery assay using distilled water. C+ positive control (extract); 2: palmitic acid; 3: s-carboxymethylcisteine; 4: trans-aconitic acid; 5: glucose. Concentrations of the compositions: 3+4, 3+5, 4+5=0.25 g/L (each active compound of the composition); 3+4+5=0.17 g/L each active compound of the composition.

Compound	J2 paralyzed ([1]; 80 μg/300 μL)	J2 paralyzed ([1]; 150 μg/300 μL)	nematicidal activity after the recovery assay ([2]; 150 μg/300 μL) [%]	other results
CO[C@H]1[C@H](O)[C@@H](O)[C@@H](O)[C@H](O)[C@@H]1O [D-pinitol]	did not exhibit any toxic effect	did not exhibit any toxic effect		
N=C(N)NOCC[C@H](N)C(=O)O [L-canavanine]	did not exhibit any nematotoxic activity			juveniles remaining paralyzed after the recovery assay (nematicidal activity) ([2]; 105 μg/300 μL): 25%
N[C@@H](Cc1ccccc1)C(=O)O [L-phenylamnine]	not capable of affecting the J2	not capable of affecting the J2		
N[C@@H](Cc1c[nH]c2ccccc12)C(=O)O [L-triptofane]	not capable of affecting the J2	not capable of affecting the J2		
COc1c2occc2cc2ccc(=O)oc12 [Xantotoxin]	87%	87%		J2 recovering the mobility after the recovery test ([2]; 80 μg/300 μL): did not recover the mobility; J2 recovering the mobility after the recovery test ([2]; 150 μg/300 μL): did not recover the mobility
O=C(O)/C=C(/CC(=O)O)C(=O)O [cis-aconitic acid]	very low percentage		40	
O=C(O)CC(O)(CC(=O)O)C(=O)O [citric acid]	very low percentage		25	
O=C(O)CC(O)C(=O)O (stereo not drawn) [malic acid]	very low percentage		18	
CCCCCCCCCCCCCCCC(=O)O [palmitic acid]	98%			J2 recovering the mobility after the recovery test ([2]; 80 μg/300 μL): 90%; J2 recovering the mobility after the recovery test ([2]; 150 μg/300 μL): 90%
O=C(O)/C=C(\CC(=O)O)C(=O)O [trans-aconitic acid]	90%		98	% paralyzed namatodes [1]: 11.12%; % of paralyzed nematodes ([1]; 0.25 g/L (of each compound in the composition)): 27.08%
S-carboxymethylcisteine	about 90%	about 90%		% paralyzed namatodes [1]: 43.03%; J2 recovering the mobility after the recovery test ([2]; 80 μg/300 μL): most J2 recovering the movement; J2 recovering the mobility after the recovery test ([2]; 150 μg/300 μL): most J2 recovering the movement
